Reference: ChEMBL document CHEMBL5620345, “Metal binding pharmacophore click-derived discovery of new broad-spectrum metallo-β-lactamase inhibitors” (Eur J Med Chem, 2023)

Experiments:
[1] = Inhibition of recombinant his tagged IMP1 (unknown origin) expressed in Escherichia coli (DE3) cells using FC5 as substrate by microplate reader assay
[2] = Inhibition of recombinant NDM1 (unknown origin) expressed in Escherichia coli (DE3) cells using FC5 as substrate by microplate reader assay
[3] = Inhibition of recombinant VIM-1 (unknown origin) expressed in Escherichia coli (DE3) cells using FC5 as substrate by microplate reader assay
[4] = Inhibition of recombinant his tagged VIM-2 (unknown origin) expressed in Escherichia coli (DE3) cells using FC5 as substrate by microplate reader assay
[5] = Inhibition of recombinant VIM-5 (unknown origin) expressed in Escherichia coli (DE3) cells using FC5 as substrate by microplate reader assay
Escherichia coli [6] = assay: Antibacterial activity against Escherichia coli BAA2452 expressing blaNDM-1 clinical isolates assessed as meropenem MIC incubated for 16 to 18 hrs by broth microdilution method; format: functional; conditions: time 16-18 hrs; further: test concentration or dose not given here
Enterobacterales [7] = assay: Antibacterial activity against Carbapenem-Resistant Enterobacterales 19 expressing blaNDM-1 clinical isolates assessed as meropenem MIC incubated for 16 to 18 hrs by broth microdilution method; format: functional; conditions: time 16-18 hrs; further: test concentration or dose not given here
Klebsiella pneumoniae [8] = assay: Antibacterial activity against Klebsiella pneumoniae BAA2470 expressing blaNDM-1 clinical isolates assessed as meropenem MIC incubated for 16 to 18 hrs by broth microdilution method; format: functional; conditions: time 16-18 hrs; further: test concentration or dose not given here
Escherichia coli [9] = assay: Antibacterial activity against Escherichia coli C1580 expressing blaIMP-1 clinical isolates assessed as meropenem MIC incubated for 16 to 18 hrs by broth microdilution method; format: functional; conditions: time 16-18 hrs; further: test concentration or dose not given here
Escherichia coli [10] = assay: Antibacterial activity against Escherichia coli C1541 expressing blaVIM-2 clinical isolates assessed as meropenem MIC incubated for 16 to 18 hrs by broth microdilution method; format: functional; conditions: time 16-18 hrs; further: test concentration or dose not given here
Escherichia coli [11] = assay: Antibacterial activity against Escherichia coli BAA2452 expressing blaNDM-1 clinical isolates assessed as fold potentiation incubated for 16 to 18 hrs by broth microdilution method; format: functional; conditions: time 16-18 hrs; further: test concentration or dose not given here
Enterobacterales [12] = assay: Antibacterial activity against Carbapenem-Resistant Enterobacterales 19 expressing blaNDM-1 clinical isolates assessed as fold potentiation incubated for 16 to 18 hrs by broth microdilution method; format: functional; conditions: time 16-18 hrs; further: test concentration or dose not given here
Klebsiella pneumoniae [13] = assay: Antibacterial activity against Klebsiella pneumoniae BAA2470 expressing blaNDM-1 clinical isolates assessed as fold potentiation incubated for 16 to 18 hrs by broth microdilution method; format: functional; conditions: time 16-18 hrs; further: test concentration or dose not given here
Escherichia coli [14] = assay: Antibacterial activity against Escherichia coli C1580 expressing blaIMP-1 clinical isolates assessed as fold potentiation incubated for 16 to 18 hrs by broth microdilution method; format: functional; conditions: time 16-18 hrs; further: test concentration or dose not given here
Escherichia coli [15] = assay: Antibacterial activity against Escherichia coli C1541 expressing blaVIM-2 clinical isolates assessed as fold potentiation incubated for 16 to 18 hrs by broth microdilution method; format: functional; conditions: time 16-18 hrs; further: test concentration or dose not given here

Structure (SMILES) | IC50 [1] | IC50 [2] | IC50 [3] | IC50 [4] | IC50 [5] | MIC (Escherichia coli [6]) | MIC (Enterobacterales [7]) | MIC (Klebsiella pneumoniae [8]) | MIC (Escherichia coli [9]) | MIC (Escherichia coli [10]) | fold change (FC) (Escherichia coli [11]) | fold change (FC) (Enterobacterales [12]) | fold change (FC) (Klebsiella pneumoniae [13]) | fold change (FC) (Escherichia coli [14]) | fold change (FC) (Escherichia coli [15])
Nc1cccc(-c2cn(-c3cccc(C(c4ccc(-c5ccccc5)cc4)P(=O)(O)O)c3)nn2)c1 (stereo not given) | 150 nM | 180 nM | 350 nM | 0.43 nM | 2 nM | 16 µg/mL | 8 µg/mL | 64 µg/mL | 2 µg/mL | 2 µg/mL | 8 | 8 | >2 | 16 | 8
Nc1cccc(-c2cn(-c3cccc(C(c4ccc(-c5ccc(Br)cc5)cc4)P(=O)(O)O)c3)nn2)c1 (stereo not given) | 12000 nM | 4900 nM | 1710 nM | 8 nM | 2 nM | 8 µg/mL | 8 µg/mL | 64 µg/mL | 1 µg/mL | 2 µg/mL | 16 | 8 | >2 | 32 | 8
Nc1cccc(-c2cn(-c3cccc(C(c4cccc5ccccc45)P(=O)(O)O)c3)nn2)c1 (stereo not given) | 37 nM | 920 nM | 130 nM | 6 nM | 0.29 nM | 16 µg/mL | 4 µg/mL | 64 µg/mL | 0.5 µg/mL | 1 µg/mL | 8 | 16 | >2 | 64 | 16
